Holding throughout (assay type): in vivo, BALB/c mice
Test [1] deals with anti-OVA-specific IgG1 and IgG2a subclass antibody production. In words: Evaluation test of adjuvant activity (overall conclusion from anti-OVA IgG1 and IgG2a production). To be noted: compound 0.256 μmol in 5% αCD-added saline with OVA 5 μg, dorsal-subcutaneous. A digest of the protocol:
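Female BALB/c mice (8 weeks, N=6) immunized dorsal-subcutaneously with OVA 5 μg alone or plus 0.256 μmol compound in 5% α-cyclodextrin saline (Addavax™ as positive control), boosted at 2 weeks. Serum taken 2 weeks after boost; anti-OVA IgG1 and IgG2a quantified by OVA-coated ELISA against standard curves (OD 450 nm).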

For test [2], the system named is anti-OVA-specific IgG1 subclass antibody. Briefly: Adjuvant activity test: anti-OVA-specific IgG1 subclass antibody in serum of OVA-immunized mice (ELISA). To be noted: after primary immunization, serum 2 weeks later; OVA 5 μg + compound 0.256 μmol in 5% αCD-added saline (Addavax mixed with saline at 1:1), dorsal-subcutaneous; compared to OVA single administration group.

Test [3] concerns anti-OVA-specific IgG2a subclass antibody. In words: Adjuvant activity test: anti-OVA-specific IgG2a subclass antibody in serum of OVA-immunized mice (ELISA). Conditions: after primary immunization, serum 2 weeks later; OVA 5 μg + compound 0.256 μmol in 5% αCD-added saline (Addavax mixed with saline at 1:1), dorsal-subcutaneous; compared to OVA single administration group.
[4] abbreviates: conclusion from IgG1/IgG2a after primary immunization.
The mark [5] stands for this setting: conclusion from IgG1/IgG2a after secondary immunization.

Counter-ions that a name gives are not always drawn.

On to `CCCCCCCCCCCCCCCCCCCCCC(=O)N[C@@H](CC(C)C)C(=O)NCCCCCCCCCCCC` [SZ197, N-[(1S)-1-(dodecylcarbamoyl)-3-methyl-butyl]docosanamide], for which the adjuvant activity result in test [1] (setting [4]) and in test [1] (setting [5]) was “have an adjuvant activity” in each case. Moreover, in test [2], the “anti-OVA-specific IgG1 subclass antibody production” value is reported as “tended to increase”. The “anti-OVA-specific IgG2a subclass antibody production” value in test [3] is recorded as “tended to increase”.

For the compound `CCCCCCCCCCCCCCCCCCCCCC(=O)N[C@@H](CC(C)C)C(=O)NCCCCCCCC` [SZ198, N-[(1S)-3-methyl-1-(octylcarbamoyl)butyl]docosanamide], the adjuvant activity result in test [1] (setting [4]) and in test [1] (setting [5]) was “have an adjuvant activity” in each case. In addition, in test [2], the “anti-OVA-specific IgG1 subclass antibody production” value is given as “tended to increase”. In test [3], the “anti-OVA-specific IgG2a subclass antibody production” value is given as “tended to increase”.

As to `CCCCCCCCCCCCCCCC(=O)N[C@@H](CC(C)C)C(=O)NCCCCCCCC` [SZ199, N-[(1S)-3-methyl-1-(octylcarbamoyl)butyl]hexadecanamide], the adjuvant activity result in test [1] (setting [4]) and in test [1] (setting [5]) was “have an adjuvant activity” in each case. In addition, the “anti-OVA-specific IgG1 subclass antibody production” value in test [2] is “significant enhancement”. Further, in test [3], the “anti-OVA-specific IgG2a subclass antibody production” value is reported as “significant enhancement”.

`CCCCCCCCCCCCCCCCNC(=O)N[C@@H](CC(C)C)C(=O)NCCCCCCCC` [SZ201, (2S)-2-(hexadecylcarbamoylamino)-4-methyl-N-octyl-pentanamide]: the adjuvant activity result in test [1] (setting [4]) and in test [1] (setting [5]) was “have an adjuvant activity” throughout. Besides, the “anti-OVA-specific IgG1 subclass antibody production” value in test [2] was “tended to increase”. Further, the “anti-OVA-specific IgG2a subclass antibody production” value in test [3] was “tended to increase”.

Turning to `CCCCCCCCCCCCCCCCOC(=O)N[C@@H](CC(C)C)C(=O)NCCCCCCCC` [SZ203, hexadecyl N-[(1S)-3-methyl-1-(octylcarbamoyl)butyl]carbamate], the adjuvant activity entry in test [1] (setting [4]) and in test [1] (setting [5]) was “have an adjuvant activity” throughout. In addition, the “anti-OVA-specific IgG1 subclass antibody production” value in test [2] is “tended to increase”. Also, in test [3], the “anti-OVA-specific IgG2a subclass antibody production” value was “Significant enhancement”.

For the compound `CCCCCCCCCCCCCCCCCC(=O)NCC(C)(C)C(=O)NCCCCCCCCCCCC` [SZ204, N-[3-(dodecylamino)-2,2-dimethyl-3-oxo-propyl]octadecanamide], the adjuvant activity entry in test [1] (setting [4]) and in test [1] (setting [5]) was “have an adjuvant activity” in each case. The “anti-OVA-specific IgG1 subclass antibody production” value in test [2] was “tended to increase”. Also, in test [3], the “anti-OVA-specific IgG2a subclass antibody production” value was “tended to increase”.

For the compound `CCCCCCCCCCCCCCCCCC(=O)N[C@@H](CCCCNC(=N)N)C(=O)NCCCCCCCCCCCC.Cl` [SZ205, N-[(1S)-1-(dodecylcarbamoyl)-5-guanidino-pentyl]octadecanamide hydrochloride], the adjuvant activity result in test [1] (setting [4]) and in test [1] (setting [5]) was “have an adjuvant activity” throughout. In test [2], the “anti-OVA-specific IgG1 subclass antibody production” value is on record as “significant enhancement”. Besides, in test [3], the “anti-OVA-specific IgG2a subclass antibody production” value is listed as “significant enhancement”.

`CCCCCCCCCCCCCCCCCC(=O)N[C@@H](CCCCNC(=N)N)C(=O)NCCCCCC.Cl` [SZ206, N-[(1S)-1-(hexylcarbamoyl)-5-guanidino-pentyl]octadecanamide hydrochloride]: the adjuvant activity result in test [1] (setting [4]) and in test [1] (setting [5]) was “have an adjuvant activity” in each case. Moreover, the “anti-OVA-specific IgG1 subclass antibody production” value in test [2] is listed as “significant enhancement”. For the same compound, in test [3], the “anti-OVA-specific IgG2a subclass antibody production” value is on record as “significant enhancement”.

As for `CCCCCCCCCCCCNC(=O)[C@H](CCCNC(=N)N)N(CCCCCCC)CCCCCCC` [SZ207, (2S)-2-(diheptylamino)-N-dodecyl-5-guanidino-pentanamide dihydrochloride], the adjuvant activity entry in test [1] (setting [4]) and in test [1] (setting [5]) was “have an adjuvant activity” each time. The “anti-OVA-specific IgG1 subclass antibody production” value in test [2] is “tended to increase”. The “anti-OVA-specific IgG2a subclass antibody production” value in test [3] was “tended to increase”.

With `CCCCCCCCCCCCCCCCCCCCCC(=O)NCCc1ccncc1.Cl` [SZ209, N-[2-(4-pyridyl)ethyl]docosanamide hydrochloride], the adjuvant activity result in test [1] (setting [4]) and in test [1] (setting [5]) was “have an adjuvant activity” throughout. In addition, the “anti-OVA-specific IgG1 subclass antibody production” value in test [2] is recorded as “tended to increase”. In test [3], the “anti-OVA-specific IgG2a subclass antibody production” value is reported as “tended to increase”.

Turning to `CCCCCCCCCCCCCCCCNC(=O)N[C@@H](CCCNC(=N)N)C(=O)NCCCCCCCC.Cl` [SZ210, (2S)-5-guanidino-2-(hexadecylcarbamoylamino)-N-octyl-pentanamide hydrochloride], the adjuvant activity result in test [1] (setting [4]) and in test [1] (setting [5]) was “have an adjuvant activity” each time. In test [2], the “anti-OVA-specific IgG1 subclass antibody production” value is “significant enhancement”. The “anti-OVA-specific IgG2a subclass antibody production” value in test [3] is “significant enhancement”.

As to `CCCCCCCCCCCCCCCCCCNC(=O)N[C@@H](CCCNC(=N)N)C(=O)NCCCCCCCCCCCC.Cl` [SZ211, (2S)—N-dodecyl-5-guanidino-2-(octadecylcarbamoylamino)pentanamide hydrochloride], the adjuvant activity result in test [1] (setting [4]) and in test [1] (setting [5]) was “have an adjuvant activity” in each case. For the same compound, the “anti-OVA-specific IgG1 subclass antibody production” value in test [2] is recorded as “significant enhancement”. For the same compound, in test [3], the “anti-OVA-specific IgG2a subclass antibody production” value is recorded as “significant enhancement”.

Take `CCCCCCCCCCCCNC(=O)N[C@@H](CCCNC(=N)N)C(=O)NCCCCCCCCCCCC.Cl` [SZ212, (2S)—N-dodecyl-2-(dodecylcarbamoylamino)-5-guanidino-pentanamide hydrochloride]: the adjuvant activity result in test [1] (setting [4]) and in test [1] (setting [5]) was “have an adjuvant activity” in each case. Also, in test [2], the “anti-OVA-specific IgG1 subclass antibody production” value is given as “significant enhancement”. The “anti-OVA-specific IgG2a subclass antibody production” value in test [3] is recorded as “significant enhancement”.

As to `CCCCCCCCCCCCCCCCNC(=O)N[C@@H](CCCCN)C(=O)NCCCCCCCC.Cl` [SZ213, (2S)-6-amino-2-(hexadecylcarbamoylamino)-N-octyl-hexanamide hydrochloride], the adjuvant activity result in test [1] (setting [4]) and in test [1] (setting [5]) was “have an adjuvant activity” each time. Also, the “anti-OVA-specific IgG1 subclass antibody production” value in test [2] is listed as “a tendency toward increase”. The “anti-OVA-specific IgG2a subclass antibody production” value in test [3] is reported as “significant enhancement”.

As to `CCCCCCCCCCCCCCCCNC(=O)N[C@@H](CCCCN)C(=O)NCCCCCCCCCCCC.Cl` [SZ214, (2S)-6-amino-N-dodecyl-2-(hexadecylcarbamoylamino)hexanamide hydrochloride], the adjuvant activity entry in test [1] (setting [4]) and in test [1] (setting [5]) was “have an adjuvant activity” throughout. The “anti-OVA-specific IgG1 subclass antibody production” value in test [2] is reported as “significant enhancement”. Further, in test [3], the “anti-OVA-specific IgG2a subclass antibody production” value is listed as “significant enhancement”.

For `CCCCCCCCCCCCCCCCOC(=O)N[C@@H](CCCNC(=N)N)C(=O)NCCCCCCCC.Cl` [SZ215, hexadecyl N-[(1S)-4-guanidino-1-(octylcarbamoyl)butyl]carbamate hydrochloride], the adjuvant activity result in test [1] (setting [4]) and in test [1] (setting [5]) was “have an adjuvant activity” in each case. For the same compound, in test [2], the “anti-OVA-specific IgG1 subclass antibody production” value was “a tendency toward increase”. Further, the “anti-OVA-specific IgG2a subclass antibody production” value in test [3] is “significant enhancement”.

These data come from US20180311342A1, “IMMUNOSTIMULATING AGENT” (AJINOMOTO CO., INC., priority 2017, published 2018).
